Results from US20240294541A1, “COMPOUNDS CONSTITUTING C20-MODIFIED SALINOMYCIN DERIVATIVES, A METHOD FOR OBTAINING THE SAME, A COMPOSITION CONTAINING THE SAME AND A USE OF SAID COMPOUNDS” (FILECLO SPOLKA Z OGRANICZONA ODPOWIEDZIALNOSCIA, priority 2021, published 2024).
Where “and” joins values, the source holds several entries; their conditions need not be identical. Equal entries are not always repeated. Where two headings read alike, the source gives them in different places.

Experiments:
Type in all cases: cell-based
[1] = system: PLC/PRF/5 (human liver cancer); test: cells
[2] = system: MIA PaCa-2 (human pancreatic cancer); test: cells
[3] = system: SNU-16 (human gastric cancer); test: cells
[4] = system: A2780Cis (cisplatin-resistant human ovarian cancer); test: In vitro cytotoxicity, SRB assay, A2780Cis
[5] = system: NCI-H23 (human lung cancer); test: In vitro cytotoxicity, SRB assay, NCI-H23; settings: 72 h with compound, SRB, n/a = non-active compound, read-out: NCI-H23 IC50
A375 (human melanoma) = test: In vitro cytotoxicity, SRB assay, A375; settings: 72 h with compound, SRB, n/a = non-active compound, read-out: A375 IC50
[6] = system: PFSK-1 (malignant primitive neuroectodermal tumour); test: In vitro cytotoxicity, SRB assay, PFSK-1; settings: 72 h with compound, SRB, n/a = non-active compound, read-out: PFSK-1 IC50
[7] = system: BALB/3T3 (normal mouse fibroblasts); test: In vitro cytotoxicity, SRB assay, normal BALB/3T3 fibroblasts
[8] = system: NCI-H358 (human lung cancer); test: cells; settings: Table 4; NCI-H358 human lung cancer cells; read-out: IC50 (nM) NCI-H358
[9] = system: MV-4-11 (human biphenotypic leukaemia); test: In vitro cytotoxicity, MTT assay, MV-4-11
[10] = system: A2780 (human ovarian cancer); test: In vitro cytotoxicity, SRB assay, A2780; settings: 72 h with compound, SRB, n/a = non-active compound, read-out: A2780 IC50
Hs294T (human melanoma) = test: cells
[11] = system: KG-1 (human acute myeloid leukaemia); test: In vitro cytotoxicity, MTT assay, KG-1; settings: Homo sapiens; 72 h with compound, MTT; n/a = non-active compound
cancer cells = test: In vitro cytotoxic activity on the panel of cancer cell lines (MTT/SRB), general statements; settings: Tables 3.1, 3.2, 4 and 5; parent compound salinomycin
[12] = Table 4, PLC/PRF/5 human liver cancer cells, read-out: IC50 (nM) PLC/PRF/5
[13] = Table 4, MIA PaCa-2 human pancreatic cancer cells, read-out: IC50 (nM) MIA PaCa-2
[14] = Table 4, SNU-16 human gastric cancer cells, read-out: IC50 (nM) SNU-16
[15] = Table 5, BALB/3T3 normal mouse fibroblasts, read-out: IC50 (nM) BALB3T3 normal cells
[16] = Homo sapiens, A2780cis, read-out: IC50 (nM) A2780Cis
[17] = Homo sapiens, MV4-11, read-out: IC50 (nM) MV4-11

Structure (SMILES)	IC50 [7, 15] [nM]	SI A2780Cis [4]	IC50 [4, 16] [nM]	SI MV4-11 [9]	IC50 [9, 17] [nM]	anti-proliferative effect compared to that of the parent compound (cancer cells)	further results
N.N.[Cl][Pt][Cl] [Cisplatin, cisplatin, reference compound]	1390						IC50 ([1]; 72 h with compound, SRB, n/a = non-active compound, read-out: PLC/PRF/5 IC50): 1580 nM; IC50 [1, 12]: 1580 nM; IC50 ([2]; 72 h with compound, SRB, n/a = non-active compound, read-out: MIA PaCa-2 IC50): 2360 nM; IC50 [2, 13]: 2360 nM; IC50 ([3]; 72 h with compound, MTT, n/a = non-active compound, read-out: SNU-16 IC50): 2330 nM; IC50 [3, 14]: 2330 nM; A2780Cis RI [4]: 14.6; IC50 ([4]; read-out: A2780Cis IC50): 2610 nM; IC50 ([4]; read-out: IC50 (nM) A2780Cis): 2610 nM and 2870 nM; IC50 [5]: 2320 nM; IC50 (A375 (human melanoma)): 410 nM; IC50 [6]: 1510 nM; IC50 ([7]; Table 4, BALB/3T3 normal mouse fibroblasts, read-out: IC50 (nM) BALB3T3 normal cells): 1390 nM; IC50 ([7]; normal cells, 72 h with compound, SRB, n/a = non-active compound, read-out: BALB/3T3 IC50): 1390 nM; IC50 [8]: 2550 nM; IC50 ([9]; read-out: IC50 (nM) MV4-11): 166 nM; IC50 [10]: 178 nM; IC50 (Hs294T (human melanoma); 72 h with compound, SRB, n/a = non-active compound, read-out: Hs294T IC50): 736 nM; IC50 (Hs294T (human melanoma); Table 4, Hs294T human melanoma cells, read-out: IC50 (nM) Hs294T): 736 nM
CC[C@@H](C(=O)[C@@H](C)[C@@H](O)[C@H](C)[C@@H]1O[C@@H]([C@@H](CC)C(=O)O)CC[C@@H]1C)[C@H]1O[C@]2(C=C[C@@H](O)[C@]3(CC[C@@](C)([C@H]4CC[C@](O)(CC)[C@H](C)O4)O3)O2)[C@H](C)C[C@@H]1C [FLC-00001 (SAL), Salinomycin]							IC50 ([1]; Homo sapiens, PLC-PRF-5, 72 h with compound, SRB, n/a = non-active compound, read-out: PLC/PRF/5 IC50): 504 nM; IC50 [1, 12]: 504 nM; IC50 ([2]; Homo sapiens, MIA PaCa-2, 72 h with compound, SRB, n/a = non-active compound, read-out: MIA PaCa-2 IC50): 304 nM; IC50 [2, 13]: 304 nM; IC50 ([3]; Homo sapiens, SNU-16, 72 h with compound, MTT, n/a = non-active compound, read-out: SNU-16 IC50): 145 nM; IC50 [3, 14]: 145 nM; IC50 ([5]; Homo sapiens, NCI-H23): 356 nM; IC50 (A375 (human melanoma); Homo sapiens, A-375): 574 nM; IC50 ([6]; Homo sapiens, PFSK-1): 336 nM; IC50 [8]: 600 nM; IC50 ([10]; Homo sapiens, A2780): 120 nM; IC50 (Hs294T (human melanoma); Homo sapiens, Hs 294T, 72 h with compound, SRB, n/a = non-active compound, read-out: Hs294T IC50): 2160 nM; IC50 (Hs294T (human melanoma); Hs 294T, Table 4, Hs294T human melanoma cells, read-out: IC50 (nM) Hs294T): 2160 nM; IC50 [11]: 429 nM
CC[C@@H](C(=O)[C@@H](C)[C@@H](O)[C@H](C)[C@@H]1O[C@@H]([C@@H](CC)C(=O)O)CC[C@@H]1C)[C@H]1O[C@]2(C=C[C@@H](NC(=O)C3CCC3)[C@]3(CC[C@@](C)([C@H]4CC[C@](O)(CC)[C@H](C)O4)O3)O2)[C@H](C)C[C@@H]1C [FLC-00463-1•Na]	191	266.3	0.72	96.5	1.98	several times more potent compared to that of the parent compound	
CC[C@@H](C(=O)[C@@H](C)[C@@H](O)[C@H](C)[C@@H]1O[C@@H]([C@@H](CC)C(=O)O)CC[C@@H]1C)[C@H]1O[C@]2(C=C[C@@H](NC(=O)C3CCCCC3)[C@]3(CC[C@@](C)([C@H]4CC[C@](O)(CC)[C@H](C)O4)O3)O2)[C@H](C)C[C@@H]1C [FLC-00464-1•Na]						several times more potent compared to that of the parent compound	
CC[C@@H](C(=O)[C@@H](C)[C@@H](O)[C@H](C)[C@@H]1O[C@@H]([C@@H](CC)C(=O)O)CC[C@@H]1C)[C@H]1O[C@]2(C=C[C@@H](NC(=S)NC(C)(C)C)[C@]3(CC[C@@](C)([C@H]4CC[C@](O)(CC)[C@H](C)O4)O3)O2)[C@H](C)C[C@@H]1C [FLC-00467-1•Na]	85.4	≈853700		≈853700		several times more potent compared to that of the parent compound	
CC[C@@H](C(=O)[C@@H](C)[C@@H](O)[C@H](C)[C@@H]1O[C@@H]([C@@H](CC)C(=O)O)CC[C@@H]1C)[C@H]1O[C@]2(C=C[C@@H](NC(=O)c3ccc(F)cc3)[C@]3(CC[C@@](C)([C@H]4CC[C@](O)(CC)[C@H](C)O4)O3)O2)[C@H](C)C[C@@H]1C [FLC-00470-1•Na]						several times more potent compared to that of the parent compound	
CC[C@@H](C(=O)[C@@H](C)[C@@H](O)[C@H](C)[C@@H]1O[C@@H]([C@@H](CC)C(=O)O)CC[C@@H]1C)[C@H]1O[C@]2(C=C[C@@H](NC(=O)C(C)(C)CCl)[C@]3(CC[C@@](C)([C@H]4CC[C@](O)(CC)[C@H](C)O4)O3)O2)[C@H](C)C[C@@H]1C [FLC-00473-1•Na]	129	179.1	0.72	62.7	2.05	several times more potent compared to that of the parent compound	
CC[C@@H](C(=O)[C@@H](C)[C@@H](O)[C@H](C)[C@@H]1O[C@@H]([C@@H](CC)C(=O)O)CC[C@@H]1C)[C@H]1O[C@]2(C=C[C@@H](NC(=S)SC)[C@]3(CC[C@@](C)([C@H]4CC[C@](O)(CC)[C@H](C)O4)O3)O2)[C@H](C)C[C@@H]1C [FLC-00475-1•Na]						several times more potent compared to that of the parent compound	
CC[C@@H](C(=O)[C@@H](C)[C@@H](O)[C@H](C)[C@@H]1O[C@@H]([C@@H](CC)C(=O)O)CC[C@@H]1C)[C@H]1O[C@]2(C=C[C@@H](NC(=O)c3ccc(OC(F)(F)F)cc3)[C@]3(CC[C@@](C)([C@H]4CC[C@](O)(CC)[C@H](C)O4)O3)O2)[C@H](C)C[C@@H]1C [FLC-00486-1•Na]						several times more potent compared to that of the parent compound	
CC[C@@H](C(=O)[C@@H](C)[C@@H](O)[C@H](C)[C@@H]1O[C@@H]([C@@H](CC)C(=O)O)CC[C@@H]1C)[C@H]1O[C@]2(C=C[C@@H](NC(=O)C(=O)NCc3ccccc3OC)[C@]3(CC[C@@](C)([C@H]4CC[C@](O)(CC)[C@H](C)O4)O3)O2)[C@H](C)C[C@@H]1C [FLC-00491-1•Na]	411	79.2	5.19	65.3	6.3	several times more potent compared to that of the parent compound	
CC[C@@H](C(=O)[C@@H](C)[C@@H](O)[C@H](C)[C@@H]1O[C@@H]([C@@H](CC)C(=O)O)CC[C@@H]1C)[C@H]1O[C@]2(C=C[C@@H](NS(=O)(=O)c3c(C)noc3C)[C@]3(CC[C@@](C)([C@H]4CC[C@](O)(CC)[C@H](C)O4)O3)O2)[C@H](C)C[C@@H]1C [FLC-00506-1•Na]	92.5	100.3	0.92	35.3	2.62	several times more potent compared to that of the parent compound	
CC[C@@H](C(=O)[C@@H](C)[C@@H](O)[C@H](C)[C@@H]1O[C@@H]([C@@H](CC)C(=O)O)CC[C@@H]1C)[C@H]1O[C@]2(C=C[C@@H](NC(=O)NC(C)(C)C)[C@]3(CC[C@@](C)([C@H]4CC[C@](O)(CC)[C@H](C)O4)O3)O2)[C@H](C)C[C@@H]1C [FLC-00593-1•Na]	72.2	≈7220	< 0.01	≈7220	< 0.01	several times more potent compared to that of the parent compound	
CC[C@@H](C(=O)[C@@H](C)[C@@H](O)[C@H](C)[C@@H]1O[C@@H]([C@@H](CC)C(=O)O)CC[C@@H]1C)[C@H]1O[C@]2(C=C[C@@H](NC(=O)N[C@@H](C)C(C)(C)C)[C@]3(CC[C@@](C)([C@H]4CC[C@](O)(CC)[C@H](C)O4)O3)O2)[C@H](C)C[C@@H]1C [FLC-00606-1•Na]	52.4	≈5240	< 0.01	≈5240	< 0.01	several times more potent compared to that of the parent compound	
